The values that follow come from patent publication US11993599B2, “Therapeutic compounds” (Genentech, Inc., priority 2021, dated 2024).

Structures are written as SMILES.

For one assay, the target named is T1, BRG1 (Homo sapiens, UniProt P51532).
T1 construct: either BRM primary antibody (Cell signaling Cat #11966) or BRG primary antibody (Abcam, ab 110641); endogenous in cells; host or cells: SW1573
The experiment in a line: Immunofluorescence assay for BRG1 degradation in SW1573 cells. The following applies: 20 hours incubation; for DC50: immunofluorescence mean nuclear signal, read-out: BRG1 IF Degradation IC50; for Dmax: SW1573, 20 h, read-out: BRG1 IF Degradation Sinf (%). Format: cell-based. As to the method: (§1) Example B-2: Immunofluorescence Assay for BRM and BRG1 Degraders
(§2) SW1573 cells were seeded at 3000 cells/well in 384 well plates. The next day, compounds were added using an Echo dispenser. After 20 hours of incubation with compound, cells were fixed with 4% formaldehyde then permeabilized with 0.2% Triton X-100 and blocked with 10% FCS. Fixed and permeabilized cells were treated overnight at 4° C. with either BRM primary antibody (Cell signaling Cat #11966) or BRG primary antibody (Abcam, ab 110641). Finally, cells were treated with fluorescently labeled secondary antibodies for 1 hr (Donkey anti-Rabbit IgG AF488, Life Technologies, A21206) and Hoechst nuclear stain (#H3569) was added for 30 minutes. Cells were washed with PBS in between each step and before imaging on an Opera Phenix microscope (Perkin Elmer). Harmony software (Perking Elmer) was used to quantify the mean nuclear signaling intensity of BRM or BRG signaling per cell in each well. Dose responses were determined from the concentration dependent response of mean nuclear signal intensity with data normalized to a known degrader control. Dose response curves were fit to a floating maximum to allow for calculation of the Dmax.
(§3) Note that, in Table 5, the “Compound Number” corresponds to that used in Table 1. In Table 5, for BRM and BRG1 IF degradation IC50 (μM): A indicates <0.010 μM, B indicates 0.010-0.10 μM, and C indicates >0.10 μM; and for BRM and BRG1 IF degradation Sinf % D indicates 0-−30%, E indicates −30%-−70%, F indicates −71%-−120% and ND indicates the value was not determined.

In the next assay the target is BRM (Homo sapiens, UniProt P51531). The experiment in a line: Immunofluorescence assay for BRM degradation in SW1573 cells. Format: cell-based. On the set-up: treated overnight at 4° C. with either BRM primary antibody (Cell signaling Cat #11966) or BRG primary antibody; endogenous in cells; host or cells: SW1573. The following applies: 20 hours incubation; for DC50: immunofluorescence mean nuclear signal, read-out: BRM IF Degradation IC50; for BRM IF Degradation Sinf (%): normalized to a known degrader control. As for the experimental part: as §1, §2, §3
Chain of BRM (P51531 whole entry): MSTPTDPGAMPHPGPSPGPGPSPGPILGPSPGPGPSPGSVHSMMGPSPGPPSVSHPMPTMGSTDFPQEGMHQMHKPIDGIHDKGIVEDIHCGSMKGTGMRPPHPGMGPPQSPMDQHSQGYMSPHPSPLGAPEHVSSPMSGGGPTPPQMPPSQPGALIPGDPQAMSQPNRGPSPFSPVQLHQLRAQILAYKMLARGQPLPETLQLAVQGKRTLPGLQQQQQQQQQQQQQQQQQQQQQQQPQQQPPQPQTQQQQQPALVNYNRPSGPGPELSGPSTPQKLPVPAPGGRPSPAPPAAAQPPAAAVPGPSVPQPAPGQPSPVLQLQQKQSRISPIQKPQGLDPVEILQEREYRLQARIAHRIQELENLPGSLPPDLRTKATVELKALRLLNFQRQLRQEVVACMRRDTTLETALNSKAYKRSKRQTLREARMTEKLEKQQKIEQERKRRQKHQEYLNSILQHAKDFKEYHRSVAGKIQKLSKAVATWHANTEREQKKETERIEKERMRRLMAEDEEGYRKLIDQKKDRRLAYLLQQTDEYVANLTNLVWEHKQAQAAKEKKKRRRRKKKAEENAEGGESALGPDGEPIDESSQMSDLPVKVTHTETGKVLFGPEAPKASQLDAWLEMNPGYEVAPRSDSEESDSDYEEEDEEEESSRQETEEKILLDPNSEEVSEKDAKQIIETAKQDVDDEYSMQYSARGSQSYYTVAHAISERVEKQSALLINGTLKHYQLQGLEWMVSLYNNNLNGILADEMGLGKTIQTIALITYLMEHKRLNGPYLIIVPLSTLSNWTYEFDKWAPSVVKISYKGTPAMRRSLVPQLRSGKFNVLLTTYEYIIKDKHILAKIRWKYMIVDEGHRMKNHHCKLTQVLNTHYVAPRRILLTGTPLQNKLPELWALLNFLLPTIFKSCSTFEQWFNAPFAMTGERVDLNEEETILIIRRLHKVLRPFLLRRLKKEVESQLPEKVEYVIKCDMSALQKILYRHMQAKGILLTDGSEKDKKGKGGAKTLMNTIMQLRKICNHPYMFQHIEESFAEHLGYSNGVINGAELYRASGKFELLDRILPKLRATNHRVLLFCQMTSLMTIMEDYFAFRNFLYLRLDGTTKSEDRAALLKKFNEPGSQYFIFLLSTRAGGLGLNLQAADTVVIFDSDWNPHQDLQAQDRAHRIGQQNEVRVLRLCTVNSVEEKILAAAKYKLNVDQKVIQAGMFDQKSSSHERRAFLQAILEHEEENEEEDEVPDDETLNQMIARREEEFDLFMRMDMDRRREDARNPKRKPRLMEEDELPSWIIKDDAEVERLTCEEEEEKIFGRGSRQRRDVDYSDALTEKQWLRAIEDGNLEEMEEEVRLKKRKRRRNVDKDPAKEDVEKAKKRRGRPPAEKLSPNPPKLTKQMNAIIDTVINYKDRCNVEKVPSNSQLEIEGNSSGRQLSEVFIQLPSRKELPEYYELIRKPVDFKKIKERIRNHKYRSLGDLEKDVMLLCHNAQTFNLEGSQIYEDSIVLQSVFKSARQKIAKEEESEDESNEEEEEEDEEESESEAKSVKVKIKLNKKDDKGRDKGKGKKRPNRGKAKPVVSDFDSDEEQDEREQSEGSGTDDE

[1] abbreviates: normalized to a known degrader control.

T1 sequence (P51532 whole entry): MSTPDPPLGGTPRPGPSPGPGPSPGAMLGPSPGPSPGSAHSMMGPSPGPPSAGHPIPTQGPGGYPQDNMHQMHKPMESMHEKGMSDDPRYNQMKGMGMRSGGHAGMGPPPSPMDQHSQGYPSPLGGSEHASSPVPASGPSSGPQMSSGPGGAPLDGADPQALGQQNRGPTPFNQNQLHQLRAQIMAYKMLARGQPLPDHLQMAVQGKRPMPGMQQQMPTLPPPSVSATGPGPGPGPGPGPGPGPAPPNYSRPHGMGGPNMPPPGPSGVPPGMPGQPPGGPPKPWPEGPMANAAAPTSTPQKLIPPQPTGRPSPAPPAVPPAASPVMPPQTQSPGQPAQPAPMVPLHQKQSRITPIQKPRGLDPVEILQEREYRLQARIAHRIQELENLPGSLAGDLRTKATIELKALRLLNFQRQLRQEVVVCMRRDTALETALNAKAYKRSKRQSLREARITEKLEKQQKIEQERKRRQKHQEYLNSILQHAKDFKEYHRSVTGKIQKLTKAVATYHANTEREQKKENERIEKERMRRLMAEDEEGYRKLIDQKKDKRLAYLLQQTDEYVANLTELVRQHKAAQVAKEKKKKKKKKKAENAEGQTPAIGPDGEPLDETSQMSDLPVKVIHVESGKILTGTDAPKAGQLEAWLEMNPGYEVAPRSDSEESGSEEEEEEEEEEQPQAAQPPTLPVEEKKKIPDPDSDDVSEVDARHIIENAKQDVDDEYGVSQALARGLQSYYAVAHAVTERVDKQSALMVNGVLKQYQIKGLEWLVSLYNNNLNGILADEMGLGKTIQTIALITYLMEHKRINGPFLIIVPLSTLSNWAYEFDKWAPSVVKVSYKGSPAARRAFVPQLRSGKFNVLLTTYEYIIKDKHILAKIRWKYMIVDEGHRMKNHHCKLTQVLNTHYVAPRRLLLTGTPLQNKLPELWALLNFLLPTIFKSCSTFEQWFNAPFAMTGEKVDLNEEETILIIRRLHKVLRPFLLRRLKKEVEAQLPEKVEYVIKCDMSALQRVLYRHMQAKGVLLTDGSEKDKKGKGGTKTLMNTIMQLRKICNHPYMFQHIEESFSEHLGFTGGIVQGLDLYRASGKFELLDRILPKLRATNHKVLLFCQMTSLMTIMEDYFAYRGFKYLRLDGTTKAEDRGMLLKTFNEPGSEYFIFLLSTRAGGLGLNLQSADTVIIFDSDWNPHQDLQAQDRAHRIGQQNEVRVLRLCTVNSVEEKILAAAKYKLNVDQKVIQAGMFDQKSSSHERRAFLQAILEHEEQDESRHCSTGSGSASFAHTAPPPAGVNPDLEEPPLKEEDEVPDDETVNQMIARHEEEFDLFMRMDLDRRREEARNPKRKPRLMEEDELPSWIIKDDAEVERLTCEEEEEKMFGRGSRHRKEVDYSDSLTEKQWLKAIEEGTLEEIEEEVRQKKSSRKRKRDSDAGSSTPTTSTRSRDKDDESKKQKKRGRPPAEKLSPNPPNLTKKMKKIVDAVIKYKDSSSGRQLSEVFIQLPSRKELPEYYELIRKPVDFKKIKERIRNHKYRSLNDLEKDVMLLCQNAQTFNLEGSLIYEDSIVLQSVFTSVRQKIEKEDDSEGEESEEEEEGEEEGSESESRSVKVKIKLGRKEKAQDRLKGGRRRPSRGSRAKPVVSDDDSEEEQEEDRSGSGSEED

For `Nc1nnc(-c2ccccc2O)cc1N1CC2CCC(C1)N2c1ccnc(C#CCN2C[C@H]3CCCC[C@H]3C2)c1` [Compound 60, 2-[5-[8-[2-[3-[(3aS,7aR)-1,3,3a,4,5,6,7,7a-octahydroisoindol-2-yl]prop-1-ynyl]-4-pyridyl]-3,8-diazabicyclo[3.2.1]octan-3-yl]-6-amino-pyridazin-3-yl]phenol], the DC50 at BRG1 and at BRM was less than 10 nM each time. The Dmax on BRG1 (setting [1]) lay within 30 to 70%. For the same molecule, the “BRM IF Degradation Sinf (%)” value on BRM is recorded as “E (E indicates −30%-−70%)”.

In the case of `CC1CCCN(CC#Cc2cc(N3C4CCC3CN(c3cc(-c5ccccc5O)nnc3N)C4)ccn2)C1` (centres unmarked) [Compound 61, 2-[6-amino-5-[8-[2-[3-(3-methyl-1-piperidyl)prop-1-ynyl]-4-pyridyl]-3,8-diazabicyclo[3.2.1]octan-3-yl]pyridazin-3-yl]phenol], the DC50 at BRG1 is less than 10 nM. On BRG1 (setting [1]), the Dmax is 30 to 70%. Besides, at BRM, the DC50 was less than 10 nM and the “BRM IF Degradation Sinf (%)” value is “E (E indicates −30%-−70%)”.

Consider `CC1(O)CCN(CC#Cc2cc(N3C4CCC3CN(c3cc(-c5ccccc5O)nnc3N)C4)ccn2)C1` (centres unmarked) [Compound 62, 1-[3-[4-[3-[3-amino-6-(2-hydroxyphenyl)pyridazin-4-yl]-3,8-diazabicyclo[3.2.1]octan-8-yl]-2-pyridyl]prop-2-ynyl]-3-methyl-pyrrolidin-3-ol], for which the DC50 on BRG1 and at BRM was less than 10 nM throughout. At BRG1 (setting [1]), the Dmax is 30 to 70%. The “BRM IF Degradation Sinf (%)” value at BRM is listed as “E (E indicates −30%-−70%)”.

For the molecule `Nc1nnc(-c2ccccc2O)cc1N1CC2CCC(C1)N2c1ccnc(C#CCN2CC3CCCC3C2)c1` (centres unmarked) [Compound 63, 2-[5-[8-[2-[3-(3,3a,4,5,6,6a-hexahydro-1H-cyclopenta[c]pyrrol-2-yl)prop-1-ynyl]-4-pyridyl]-3,8-diazabicyclo[3.2.1]octan-3-yl]-6-amino-pyridazin-3-yl]phenol], the DC50 at BRG1 and at BRM was less than 10 nM in each case. The Dmax on BRG1 (setting [1]) lay within 30 to 70%. Moreover, the “BRM IF Degradation Sinf (%)” value on BRM is reported as “F (F indicates −71%-−120%)”.

In the case of `CC[C@H]1COCCN1CC#Cc1cc(N2C3CCC2CN(c2cc(-c4ccccc4O)nnc2N)C3)ccn1` [Compound 64, 2-[6-amino-5-[8-[2-[3-[(3S)-3-ethylmorpholin-4-yl]prop-1-ynyl]-4-pyridyl]-3,8-diazabicyclo[3.2.1]octan-3-yl]pyridazin-3-yl]phenol], the DC50 on BRG1 was 10 to 100 nM. Also, the Dmax at BRG1 (setting [1]) lay within 0 to 30%. Besides, on BRM, the DC50 lay in the range of 10 to 100 nM and the “BRM IF Degradation Sinf (%)” value was “E (E indicates −30%-−70%)”.

As for `Nc1nnc(-c2ccccc2O)cc1N1CC2CCC(C1)N2c1ccnc(C#CCN2CCC[C@@H]2CO)c1` [Compound 65, 2-[6-amino-5-[8-[2-[3-[(2R)-2-(hydroxymethyl)pyrrolidin-1-yl]prop-1-ynyl]-4-pyridyl]-3,8-diazabicyclo[3.2.1]octan-3-yl]pyridazin-3-yl]phenol], the DC50 at BRG1 fell in the range of 10 to 100 nM. Further, the Dmax at BRG1 (setting [1]) is 0 to 30%. Moreover, at BRM, the DC50 is less than 10 nM and the “BRM IF Degradation Sinf (%)” value was “E (E indicates −30%-−70%)”.

Take `Nc1nnc(-c2ccccc2O)cc1N1CC2CCC(C1)N2c1ccnc(C#CCN2CC3(CCCCO3)C2)c1` [Compound 66, 2-[6-amino-5-[8-[2-[3-(5-oxa-2-azaspiro[3.5]nonan-2-yl)prop-1-ynyl]-4-pyridyl]-3,8-diazabicyclo[3.2.1]octan-3-yl]pyridazin-3-yl]phenol]: the DC50 on BRG1 is 10 to 100 nM; on BRM it was less than 10 nM. Also, the Dmax at BRG1 (setting [1]) was in the range of 30 to 70%. In addition, the “BRM IF Degradation Sinf (%)” value on BRM is given as “F (F indicates −71%-−120%)”.

As to `Nc1nnc(-c2ccccc2O)cc1N1CC2CCC(C1)N2c1ccnc(C#CCN2CCN3CCCC3C2)c1` (centres unmarked) [Compound 67, 2-[5-[8-[2-[3-(3,4,6,7,8,8a-hexahydro-1H-pyrrolo[1,2-a]pyrazin-2-yl)prop-1-ynyl]-4-pyridyl]-3,8-diazabicyclo[3.2.1]octan-3-yl]-6-amino-pyridazin-3-yl]phenol], the DC50 on BRG1 is less than 10 nM; on BRM, 10 to 100 nM. Besides, the Dmax on BRG1 (setting [1]) was in the range of 0 to 30%. For the same molecule, the “BRM IF Degradation Sinf (%)” value at BRM is on record as “E (E indicates −30%-−70%)”.

Regarding `Nc1nnc(-c2ccccc2O)cc1N1CC2CCC(C1)N2c1ccnc(C#CCN2CC3CC3C2)c1` (centres unmarked) [Compound 68, 2-[6-amino-5-[8-[2-[3-(3-azabicyclo[3.1.0]hexan-3-yl)prop-1-ynyl]-4-pyridyl]-3,8-diazabicyclo[3.2.1]octan-3-yl]pyridazin-3-yl]phenol;], the DC50 at BRG1 and on BRM was less than 10 nM in each case. Also, at BRG1 (setting [1]), the Dmax lay in the range of 30 to 70%. In addition, at BRM, the “BRM IF Degradation Sinf (%)” value is given as “F (F indicates −71%-−120%)”.

As for `Nc1nnc(-c2ccccc2O)cc1N1CC2CCC(C1)N2c1ccnc(C#CCN2CCC23CCOC3)c1` (centres unmarked) [Compound 69, 2-[6-amino-5-[8-[2-[3-(7-oxa-1-azaspiro[3.4]octan-1-yl)prop-1-ynyl]-4-pyridyl]-3,8-diazabicyclo[3.2.1]octan-3-yl]pyridazin-3-yl]phenol], the DC50 on BRG1 is less than 10 nM. Besides, on BRG1 (setting [1]), the “BRG1 IF Degradation Sinf (%)” value is “E (E indicates −30%-−70%)”. At BRM, the DC50 was less than 10 nM and the “BRM IF Degradation Sinf (%)” value is reported as “F (F indicates −71%-−120%)”.

Regarding `Nc1nnc(-c2ccccc2O)cc1N1CC2CCC(C1)N2c1ccnc(C#CCN2CCCOCC2)c1` [Compound 70, 2-[6-amino-5-[8-[2-[3-(l,4-oxazepan-4-yl)prop-1-ynyl]-4-pyridyl]-3,8-diazabicyclo[3.2.1]octan-3-yl]pyridazin-3-yl]phenol], at BRG1, the DC50 is less than 10 nM. For the same molecule, on BRG1 (setting [1]), the Dmax is 30 to 70%. At BRM, the DC50 was less than 10 nM and the “BRM IF Degradation Sinf (%)” value is listed as “E (E indicates −30%-−70%)”.

On to `Nc1nnc(-c2ccccc2O)cc1N1CC2CCC(C1)N2c1ccnc(C#CCN2CCC(O)CC2)c1` [Compound 71, 1-[3-[4-[3-[3-amino-6-(2-hydroxyphenyl)pyridazin-4-yl]-3,8-diazabicyclo[3.2.1]octan-8-yl]-2-pyridyl]prop-2-ynyl]piperidin-4-ol], for which, at BRG1, the DC50 is less than 10 nM. Moreover, the Dmax at BRG1 (setting [1]) lay in the range of 30 to 70%. Also, at BRM, the DC50 lay within 10 to 100 nM and the “BRM IF Degradation Sinf (%)” value was “E (E indicates −30%-−70%)”.

As to `Nc1nnc(-c2ccccc2O)cc1N1CC2CCC(C1)N2c1ccnc(C#CCN2CCn3cncc3C2)c1` [Compound 72, 2-[6-amino-5-[8-[2-[3-(6,8-dihydro-5H-imidazo[1,5-a]pyrazin-7-yl)prop-1-ynyl]-4-pyridyl]-3,8-diazabicyclo[3.2.1]octan-3-yl]pyridazin-3-yl]phenol], the DC50 on BRG1 is greater than 100 nM. On BRM, the DC50 was in the range of 10 to 100 nM and the “BRM IF Degradation Sinf (%)” value is “E (E indicates −30%-−70%)”.

Turning to `Nc1nnc(-c2ccccc2O)cc1N1CC2CCC(C1)N2c1ccnc(C#CCN2CCOCC23CC3)c1` [Compound 73, 2-[6-amino-5-[8-[2-[3-(7-oxa-4-azaspiro[2.5]octan-4-yl)prop-1-ynyl]-4-pyridyl]-3,8-diazabicyclo[3.2.1]octan-3-yl]pyridazin-3-yl]phenol], the DC50 at BRG1 and on BRM was greater than 100 nM each time. Moreover, on BRM, the “BRM IF Degradation Sinf (%)” value is “E (E indicates −30%-−70%)”.

For `Nc1nnc(-c2ccccc2O)cc1N1CC2CCC(C1)N2c1ccnc(C#CCN2CCOC3CC32)c1` (centres unmarked) [Compound 74, 2-[6-amino-5-[8-[2-[3-(2-oxa-5-azabicyclo[4.1.0]heptan-5-yl)prop-1-ynyl]-4-pyridyl]-3,8-diazabicyclo[3.2.1]octan-3-yl]pyridazin-3-yl]phenol], the DC50 at BRG1 is greater than 100 nM. Also, at BRM, the DC50 lay in the range of 10 to 100 nM and the “BRM IF Degradation Sinf (%)” value is reported as “E (E indicates −30%-−70%)”.

As to `C[C@H]1CCN(CC#Cc2cc(N3C4CCC3CN(c3cc(-c5ccccc5O)nnc3N)C4)ccn2)C1` [Compound 75, 2-(6-amino-5-(8-(2-(3-((S)-3-methylpyrrolidin-1-yl)prop-1-yn-1-yl)pyridin-4-yl)-3,8-diazabicyclo[3.2.1]octan-3-yl)pyridazin-3-yl)phenol], the DC50 on BRG1 was less than 10 nM. Further, the Dmax on BRG1 (setting [1]) fell in the range of 30 to 70%. On BRM, the DC50 is less than 10 nM and the “BRM IF Degradation Sinf (%)” value is “E (E indicates −30%-−70%)”.

In the case of `Nc1nnc(-c2ccccc2O)cc1N1CC2CCC(C1)N2c1ccnc(C#CCN2CC3COCC3C2)c1` (centres unmarked) [Compound 76, 2-[5-[8-[2-[3-(1,3,3a,4,6,6a-hexahydrofuro[3,4-c]pyrrol-5-yl)prop-1-ynyl]-4-pyridyl]-3,8-diazabicyclo[3.2.1]octan-3-yl]-6-amino-pyridazin-3-yl]phenol], the DC50 on BRG1 was less than 10 nM. The Dmax at BRG1 (setting [1]) was in the range of 0 to 30%. Further, on BRM, the DC50 was less than 10 nM and the “BRM IF Degradation Sinf (%)” value is listed as “E (E indicates −30%-−70%)”.
